# In PubChem BioAssay AID2060513 (Molecular Pharmacology Branch, DTP, NCI, 2025):
# System: 299254-011-R-J1-PDC complex spheroids viability
# Experiment: Anticancer human tumor 299254-011-R-J1-PDC patient-derived melanoma cell line growth inhibition [GQUAD]
# Details: for IC50: curve of first compound; for viability, T/C: stronger effect = lower value
# Summary of the method: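 Multi-cell-type spheroids of tumor cells with HUVEC and mesenchymal stem cells, treated with drug combinations. Concentrations descend in half-log steps from near clinical Cmax, or from 10 microM where Cmax is unknown; viability read-out.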
# [1] = second compound 0.0316 µM, first compound 0.0316 µM
# [2] = second compound 0.0316 µM, first compound 0.1 µM
# [3] = second compound 0.0316 µM, first compound 0.316 µM
# [4] = second compound 0.0316 µM, first compound 1 µM
# [5] = second compound 0.0316 µM, first compound 3.16 µM
# [6] = second compound 0.0316 µM, first compound 10 µM
# [7] = second compound 0.1 µM, first compound 0.0316 µM
# [8] = second compound 0.1 µM, first compound 0.1 µM
# [9] = second compound 0.1 µM, first compound 0.316 µM
# [10] = second compound 0.1 µM, first compound 1 µM
# [11] = second compound 0.1 µM, first compound 3.16 µM
# [12] = second compound 0.1 µM, first compound 10 µM
# [13] = second compound 0.316 µM, first compound 0.0316 µM
# [14] = second compound 0.316 µM, first compound 0.1 µM
# [15] = second compound 0.316 µM, first compound 0.316 µM
# [16] = second compound 0.316 µM, first compound 1 µM
# [17] = second compound 0.316 µM, first compound 3.16 µM
# [18] = second compound 0.316 µM, first compound 10 µM
# [19] = second compound 1 µM, first compound 0.0316 µM
# [20] = second compound 1 µM, first compound 0.1 µM
# [21] = second compound 1 µM, first compound 0.316 µM
# [22] = second compound 1 µM, first compound 1 µM
# [23] = second compound 1 µM, first compound 3.16 µM
# [24] = second compound 1 µM, first compound 10 µM
# [25] = second compound 3.16 µM, first compound 0.0316 µM
# [26] = second compound 3.16 µM, first compound 0.1 µM
# [27] = second compound 3.16 µM, first compound 0.316 µM
# [28] = second compound 3.16 µM, first compound 1 µM
# [29] = second compound 3.16 µM, first compound 3.16 µM
# [30] = second compound 3.16 µM, first compound 10 µM
# [31] = second compound 10 µM, first compound 0.0316 µM
# [32] = second compound 10 µM, first compound 0.1 µM
# [33] = second compound 10 µM, first compound 0.316 µM
# [34] = second compound 10 µM, first compound 1 µM
# [35] = second compound 10 µM, first compound 3.16 µM
# [36] = second compound 10 µM, first compound 10 µM
# 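Further: spheroids exposed to the agents for seven days before readout.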
# 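Wherever viability, T/C is given: percent viability relative to DMSO vehicle control wells = 100%.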
compound,measurement,setting,value
Cc1cccc(N(C)C(=O)C2C(O)CCN2c2nc(C)cc(C(F)(F)F)c2C#N)c1 (centres undefined) + Cc1[nH]c2ccc(F)cc2c1-c1nc2c3cccnc3c3ncccc3c2[nH]1,IC50,second compound 0.0316 µM,> 10 µM
same,IC50,second compound 0.1 µM,> 10 µM
same,IC50,second compound 0.316 µM,> 10 µM
same,IC50,second compound 1 µM,> 10 µM
same,IC50,second compound 3.16 µM,> 10 µM
same,IC50,second compound 10 µM,> 10 µM
same,"viability, T/C",[1],104%
same,"viability, T/C",[2],104%
same,"viability, T/C",[3],112%
same,"viability, T/C",[4],90%
same,"viability, T/C",[5],82.1%
same,"viability, T/C",[6],90.6%
same,"viability, T/C",[7],86.7%
same,"viability, T/C",[8],95.2%
same,"viability, T/C",[9],92.1%
same,"viability, T/C",[10],77.5%
same,"viability, T/C",[11],90.4%
same,"viability, T/C",[12],112%
same,"viability, T/C",[13],114%
same,"viability, T/C",[14],114%
same,"viability, T/C",[15],100%
same,"viability, T/C",[16],88.5%
same,"viability, T/C",[17],137%
same,"viability, T/C",[18],82.8%
same,"viability, T/C",[19],109%
same,"viability, T/C",[20],85.7%
same,"viability, T/C",[21],83.9%
same,"viability, T/C",[22],109%
same,"viability, T/C",[23],103%
same,"viability, T/C",[24],102%
same,"viability, T/C",[25],91.3%
same,"viability, T/C",[26],122%
same,"viability, T/C",[27],91.4%
same,"viability, T/C",[28],98.6%
same,"viability, T/C",[29],116%
same,"viability, T/C",[30],94.5%
same,"viability, T/C",[31],93.8%
same,"viability, T/C",[32],116%
same,"viability, T/C",[33],103%
same,"viability, T/C",[34],89.5%
same,"viability, T/C",[35],84.9%
same,"viability, T/C",[36],84.1%
COc1ccc([C@@H](O)c2cc(-c3ncnc4cc(N5CCOCC5)ccc34)c(F)cc2Cl)nn1 + Cc1cnc(CNC(=O)c2c(=O)c3ccc(N4CCCN(C)CC4)nc3n3c2sc2ccccc23)cn1,IC50,second compound 0.0316 µM,7.51 µM
same,IC50,second compound 0.1 µM,6.85 µM
same,IC50,second compound 0.316 µM,3.15 µM
same,IC50,second compound 1 µM,2.79 µM
same,IC50,second compound 3.16 µM,2.71 µM
same,IC50,second compound 10 µM,< 0.0316 µM
same,"viability, T/C",[1],75.6%
same,"viability, T/C",[2],87.8%
same,"viability, T/C",[3],83.6%
same,"viability, T/C",[4],82%
same,"viability, T/C",[5],83.4%
same,"viability, T/C",[6],39.2%
same,"viability, T/C",[7],86.4%
same,"viability, T/C",[8],82.5%
same,"viability, T/C",[9],109%
same,"viability, T/C",[10],88.2%
same,"viability, T/C",[11],78.1%
same,"viability, T/C",[12],36%
same,"viability, T/C",[13],84%
same,"viability, T/C",[14],87.4%
same,"viability, T/C",[15],86.6%
same,"viability, T/C",[16],68.1%
same,"viability, T/C",[17],51.6%
same,"viability, T/C",[18],32.4%
same,"viability, T/C",[19],81.5%
same,"viability, T/C",[20],76.6%
same,"viability, T/C",[21],73%
same,"viability, T/C",[22],80%
same,"viability, T/C",[23],46.6%
same,"viability, T/C",[24],26.7%
same,"viability, T/C",[25],67.2%
same,"viability, T/C",[26],63.1%
same,"viability, T/C",[27],57.2%
same,"viability, T/C",[28],62.8%
same,"viability, T/C",[29],47.7%
same,"viability, T/C",[30],23.2%
same,"viability, T/C",[31],0.4%
same,"viability, T/C",[32],24.3%
same,"viability, T/C",[33],45.3%
same,"viability, T/C",[34],21.1%
same,"viability, T/C",[35],0.32%
same,"viability, T/C",[36],0.26%
